Results published in patent US12304909B2, “Compounds and their use in therapy” (IMPERIAL COLLEGE INNOVATIONS LIMITED, priority 2018, dated 2025).
Values joined by “and” are separate entries in the source; they are usually repeats but may differ in a detail not shown here. Equal entries are not always repeated. Where two headings read alike, the source gives them in different places.

Assays:
human NMT1 (HsNMT1) = target: T1, human NMT1 (HsNMT1) (Homo sapiens, UniProt P30419); assay: HsNMT1 IC50, fluorescence-based assay detecting CoA with CPM; assay type: biochemical
T1 sequence (P30419 1-496): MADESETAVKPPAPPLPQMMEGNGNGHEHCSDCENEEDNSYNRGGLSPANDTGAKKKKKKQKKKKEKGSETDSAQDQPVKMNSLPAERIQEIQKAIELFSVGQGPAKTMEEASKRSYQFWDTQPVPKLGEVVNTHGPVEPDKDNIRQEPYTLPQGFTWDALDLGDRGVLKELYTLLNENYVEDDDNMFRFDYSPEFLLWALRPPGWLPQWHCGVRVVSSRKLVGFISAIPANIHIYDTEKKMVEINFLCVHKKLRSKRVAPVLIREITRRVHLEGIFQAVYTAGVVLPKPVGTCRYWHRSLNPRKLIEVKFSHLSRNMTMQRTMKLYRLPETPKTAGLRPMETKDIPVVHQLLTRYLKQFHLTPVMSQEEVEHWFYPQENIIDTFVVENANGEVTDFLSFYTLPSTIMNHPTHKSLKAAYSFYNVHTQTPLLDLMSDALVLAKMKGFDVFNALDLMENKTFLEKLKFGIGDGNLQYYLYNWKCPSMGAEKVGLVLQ
Protocol: The IC50 values for human NMT1 (HsNMT1) of four Example compounds of the invention described above (Examples 1-4) and six comparative examples (Comparative Examples 1, 2, 3, 4, 5 and 6) were measured using a sensitive fluorescence-based assay based on detection of CoA by 7-diethylamino-3-(4-maleimido-phenyl)-4-methylcoumarin, as described in Goncalves, V., et al., Analytical Biochemistry, 2012, 421, 342-344 and Goncalves, V., et al., J. Med. Chem, 2012, 55, 3578.

MRC5 cells = assay: Metabolic activity assay (MTS assay), MRC5; assay type: cell-based, human
Protocol: (§1) Example NMT inhibitors of the present invention were tested for activity in an in vitro metabolic activity assay using the human cell line MRC5. Comparative Examples 1, 2, 3, 4, 5 and 6 were also tested in the same metabolic activity assay. Compounds having activity in inhibiting metabolic activity in the assay are expected to be useful as agents for preventing and/or treating cancer, by virtue of being inhibitors of human NMT1 and/or NMT2.
MRC5 cells (obtained from Dr David Mann's group, Imperial College; cell type: fibroblasts cells which derive from normal lung tissue) were grown in DMEM media (supplemented with 10% FBS) and were seeded in a 96-well plate, 24 h prior to treatment. Cell suspensions were prepared by adjusting the cell density to the appropriate concentration (as stated in the Table 1 below) and 50 μL of the cell suspension was transferred to wells B-G in columns 2-11 of a 96-well plate.
100 μL of growth media (DMEM media) containing 0.2% DMSO was added to wells B-G in columns 2 and 11 as positive controls, and 100 μl of growth media containing Puromycin (3 μg/mL; final concentration in the plate 2 μg/mL) was added to wells B-G in column 3 as a negative control. Seven concentrations of NMT inhibitor stock solution were prepared for each Example (Example 1 and 2) and each Comparative Example (Comparative Examples 1, 2, 3, 4, 5 and 6) tested (same final percentage of DMSO, dilution factor=3 starting from 15 μM or 150 μM). 100 μL of inhibitor stock solution was added to wells B-G in columns 4-10 of a 96-well plate (final concentration of Example compound or Comparative Example compound in the plate starting from 10 μM or 100 μM; total volume in each well was 150 μL). The plate was incubated at 37° C. with 5% CO2 level.
After 72 h, 20 μL MTS reagent (Promega, prepared according to the supplier protocol) was added to each well of the 96-well plate. The plate was incubated at 37° C. for 2 h and the absorbance per well was measured at 490 nm with an EnVision plate reader. The average absorbance value of the negative control (Puromycin-treated cells) was subtracted from each value and the metabolic activity was calculated as a percentage relative to the positive control (DMSO-treated cells). EC50 values were calculated using GraphPad.

MDA MB 231 cells = assay: CellTiter-Blue assay, MDA MB 231; assay type: cell-based, human
Protocol: as §1, with “in” for “in an”, “CellTiter-Blue® assays” for “metabolic activity assay”, “MDA MB 231, LY 12318, or BL-41.” for “MRC5.”, “1” for “1, 2, 3, 4, 5”, “2” for “6”, “assays.” for “metabolic activity assay.”
(§2) MDA MB 231 cells (obtained from Professor Eric Aboagye, Hammersmith Hospital; cell type: triple negative breast cancer) were grown in low glucose DMEM in 5% CO2 media (supplemented with 10% FBS); LY 12318 cells (obtained from Dr Martin Janz, Max Delbrueck Center; cell type: B cell lymphoma patient derived xenograft) were grown in DMEM media (supplemented with 10% FBS); and BL-41 cells (obtained from Cell Services at the Crick Institute; cell type: Burkitt's Lymphoma) were grown in RPMI-1640 media in 5% CO2 (supplemented with 10% FBS). The MDA MB 231 cells, LY 12318 cells or BL-41 cells were seeded in 96-well plates, 24 h prior to treatment. Cell suspensions were prepared by adjusting the cell density to the appropriate concentration (as stated in the Table 2 below) and 50 μL of the cell suspension was transferred to wells B-G in columns 2-11 of a 96-well plate.
(§3) Twenty-four hours later, 50 μl of growth media (low glucose DMEM in 5% CO2 media supplemented with 10% FBS for MDA MB 231 cells; DMEM media in 5% CO2 supplemented with 10% FBS for LY 12318 cells; or RPMI-1640 media supplemented with 10% FBS for BL-41 cells) containing 0.0004% DMSO (positive control), a mix of Puromycin and Staurosporine (negative controls, final concentration 2 μg/mL and 1 μM respectively) or different concentrations of each Example (Example 1 and 2) or each Comparative Example (Comparative Example 1 and 2) (dilution factor=3, starting at […], final concentration in the plate starting from 10 μM) were prepared and added to a well of the 96-well plate. The plate was incubated at 37° C. with 5% CO2 level.
(§4) 72 hours later, 20 μl/well CellTiter-Blue® (G8081, Promega) were added to the plates according to the manufacturer's protocol, the plate was incubated at 37° C. for 4 h for MDA MB 231 cells and BL-41 cells, or 3 h for LY 12318 cells, followed by measuring the absorbance per well at 570 nm using an EnVision plate reader. The negative control values were subtracted from every value. The metabolic activity was calculated as a percentage relative to the positive control. The EC50 values were calculated using GraphPad Prism.

LY 12318 cells = assay: CellTiter-Blue assay, LY 12318; assay type: cell-based, human; settings: 72 h, read-out: LY12318 EC50
Protocol: as §1, with “in” for “in an”, “CellTiter-Blue® assays” for “metabolic activity assay”, “MDA MB 231, LY 12318, or BL-41.” for “MRC5.”, “1” for “1, 2, 3, 4, 5”, “2” for “6”, “assays.” for “metabolic activity assay.”
as §2, §3, §4

BL-41 cells = assay: CellTiter-Blue assay, BL-41; assay type: cell-based, human
Protocol: as §1, with “in” for “in an”, “CellTiter-Blue® assays” for “metabolic activity assay”, “MDA MB 231, LY 12318, or BL-41.” for “MRC5.”, “1” for “1, 2, 3, 4, 5”, “2” for “6”, “assays.” for “metabolic activity assay.”
as §2, §3, §4

Row | Structure (SMILES) | IC50 (human NMT1 (HsNMT1)) | EC50 (MRC5 cells; Homo sapiens, MRC5, 72 h) [nM] | EC50 (MDA MB 231 cells; Homo sapiens, MDA-MB-231, 72 h) [nM] | EC50 (LY 12318 cells; Homo sapiens) [nM] | EC50 (BL-41 cells; Homo sapiens, BL-41, 72 h) [nM] | EC50 (MRC5 cells; 72 h) [nM] | EC50 (MDA MB 231 cells; 72 h) [nM] | EC50 (LY 12318 cells) [nM] | EC50 (BL-41 cells; 72 h) [nM]
1 | CNC(=O)c1nn(C)c(C)c1CCOc1cc(F)ccc1-c1ccc2ncc(CCN)n2c1 [Comparative Example 2, 4-(2-{2-[3-(2-aminoethyl)imidazo[1,2-a]pyridin-6-yl]-5-fluorophenoxy}ethyl)-N,1,5-trimethyl-1H-pyrazole-3-carboxamide] | ~1 nM and 1 nM | > 6800 | 237 | > 370 | 298 | – | – | – | –
2 | CNCCc1cnc2ccc(-c3ccc(F)cc3OCCc3c(C)nn(C)c3C)cn12 [Comparative Example 3, [2-(6-{4-fluoro-2-[2-(1,3,5-trimethyl-1H-pyrazol-4-yl)ethoxy]phenyl}imidazo[1,2-a]pyridin-3-yl)ethyl](methyl)amine] | 10.5 nM | 5400 | – | – | – | – | – | – | –
3 | Cc1c(CCOc2cc(Cl)ccc2-c2ccc3ncc(CCN)n3c2)c(C(=O)N(C)C)nn1C [Example Compound 1, 4-(2-{2-[3-(2-aminoethyl)imidazo[1,2-a]pyridin-6-yl]-5-chlorophenoxy}ethyl)-N,N,1,5-tetramethyl-1H-pyrazole-3-carboxamide] | – | – | – | – | – | 13 | 20 | 27 | 14
